In general, Ki refers to a dissociation constant, usually derived from enzyme kinetics or from competition with a known ligand. What is called EC50 is the concentration needed to bring the measured effect to its halfway point. In general, IC50 refers to the concentration that inhibits the measured activity by half. Low readings indicate greater potency in that assay, high ones weaker potency in that assay.

Assay [1] concerns the target Glutamate receptor ionotropic, kainate 2 (Rattus norvegicus, UniProt P42260). The experiment in a line: Displacement of [3H]KA from rat recombinant GluR6 expressed in Sf9 cells.
The nature of assay [2]: Activity at ionotropic GluR in rat cortical wedge by electrophysiology assay.
Assay [3] in a line: Displacement of [3H]AMPA from AMPA receptor in rat synaptosomes. In kind it is subcellular, Brain. Background: In a radioligand displacement assay an active substance lowers the binding of a labelled ligand.
Assay [4] in a line: Displacement of [3H]KA from kainate receptor in rat synaptosomes. In kind it is subcellular, Brain.
The target in assay [5] is Glutamate NMDA receptor. Briefly: Displacement of [3H]CGP 39653 from NMDA receptor in rat synaptosomes. In kind it is subcellular, Brain.
For a further assay, the target named is Glutamate receptor 3 (Rattus norvegicus, UniProt P19492). The experiment in a line: biochemical.
Another assay addresses Glutamate receptor 4 (Rattus norvegicus, UniProt P19493). Briefly: biochemical.
For assay [6], the target named is Glutamate receptor ionotropic, kainate 1 (Rattus norvegicus, UniProt P22756). The experiment in a line: biochemical.
Chain of Glutamate receptor ionotropic, kainate 1 (P22756 whole entry): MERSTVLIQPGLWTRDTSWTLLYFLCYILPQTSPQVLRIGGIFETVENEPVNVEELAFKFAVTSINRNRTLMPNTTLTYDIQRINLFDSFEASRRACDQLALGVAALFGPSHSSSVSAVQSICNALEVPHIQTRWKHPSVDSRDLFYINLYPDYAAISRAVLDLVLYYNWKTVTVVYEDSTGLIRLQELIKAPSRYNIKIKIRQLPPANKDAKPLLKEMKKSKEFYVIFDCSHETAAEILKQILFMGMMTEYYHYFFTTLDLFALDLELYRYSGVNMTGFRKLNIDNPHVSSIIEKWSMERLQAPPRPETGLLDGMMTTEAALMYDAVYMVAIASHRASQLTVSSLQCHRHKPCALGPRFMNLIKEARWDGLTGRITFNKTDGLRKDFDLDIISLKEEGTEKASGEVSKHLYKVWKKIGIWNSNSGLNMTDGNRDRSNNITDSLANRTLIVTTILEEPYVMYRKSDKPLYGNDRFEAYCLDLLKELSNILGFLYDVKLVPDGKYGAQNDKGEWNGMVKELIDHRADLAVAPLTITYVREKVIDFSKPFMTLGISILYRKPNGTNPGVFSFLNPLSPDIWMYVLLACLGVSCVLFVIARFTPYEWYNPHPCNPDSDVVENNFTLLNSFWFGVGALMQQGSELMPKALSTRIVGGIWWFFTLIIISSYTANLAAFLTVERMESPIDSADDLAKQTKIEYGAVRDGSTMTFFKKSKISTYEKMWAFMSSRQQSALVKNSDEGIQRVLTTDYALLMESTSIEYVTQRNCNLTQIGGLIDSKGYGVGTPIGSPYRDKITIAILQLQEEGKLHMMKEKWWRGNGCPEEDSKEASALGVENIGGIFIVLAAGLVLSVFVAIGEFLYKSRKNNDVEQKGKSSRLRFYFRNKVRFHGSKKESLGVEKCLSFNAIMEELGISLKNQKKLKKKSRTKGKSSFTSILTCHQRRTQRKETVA
Description: Displacement of [3H]SYM 2081 from rat recombinant GluR5 expressed in Sf9 cells
The target of the next assay is Glutamate receptor 1 (Rattus norvegicus, UniProt P19490). The experiment in a line: biochemical.
Chain of Glutamate receptor 1 (P19490 whole entry): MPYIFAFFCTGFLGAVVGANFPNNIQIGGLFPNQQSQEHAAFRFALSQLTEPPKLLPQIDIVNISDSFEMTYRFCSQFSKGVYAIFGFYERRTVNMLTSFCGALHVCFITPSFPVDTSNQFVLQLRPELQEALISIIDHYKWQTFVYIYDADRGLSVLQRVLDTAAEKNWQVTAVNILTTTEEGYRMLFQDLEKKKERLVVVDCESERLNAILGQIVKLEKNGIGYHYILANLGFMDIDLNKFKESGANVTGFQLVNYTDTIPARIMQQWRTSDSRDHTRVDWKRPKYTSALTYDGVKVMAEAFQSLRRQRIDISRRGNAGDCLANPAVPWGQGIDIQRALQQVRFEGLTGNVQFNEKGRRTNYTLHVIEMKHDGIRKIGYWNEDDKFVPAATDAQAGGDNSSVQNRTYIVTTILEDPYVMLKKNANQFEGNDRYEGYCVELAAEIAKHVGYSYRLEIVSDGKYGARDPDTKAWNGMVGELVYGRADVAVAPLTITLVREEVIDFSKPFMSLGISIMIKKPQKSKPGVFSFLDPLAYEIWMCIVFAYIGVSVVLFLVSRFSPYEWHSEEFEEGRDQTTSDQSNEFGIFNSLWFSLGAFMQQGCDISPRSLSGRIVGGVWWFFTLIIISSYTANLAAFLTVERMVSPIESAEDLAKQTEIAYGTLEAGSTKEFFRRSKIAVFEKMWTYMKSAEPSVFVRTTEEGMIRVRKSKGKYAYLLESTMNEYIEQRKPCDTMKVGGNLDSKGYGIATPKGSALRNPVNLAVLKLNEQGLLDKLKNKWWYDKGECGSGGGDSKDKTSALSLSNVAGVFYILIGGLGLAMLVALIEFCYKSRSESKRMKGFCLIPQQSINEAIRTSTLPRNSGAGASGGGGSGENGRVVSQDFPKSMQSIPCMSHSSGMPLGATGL
The next assay deals with Glutamate receptor 2 (Rattus norvegicus, UniProt P19491). Briefly: biochemical.
Chain of Glutamate receptor 2 (P19491 whole entry): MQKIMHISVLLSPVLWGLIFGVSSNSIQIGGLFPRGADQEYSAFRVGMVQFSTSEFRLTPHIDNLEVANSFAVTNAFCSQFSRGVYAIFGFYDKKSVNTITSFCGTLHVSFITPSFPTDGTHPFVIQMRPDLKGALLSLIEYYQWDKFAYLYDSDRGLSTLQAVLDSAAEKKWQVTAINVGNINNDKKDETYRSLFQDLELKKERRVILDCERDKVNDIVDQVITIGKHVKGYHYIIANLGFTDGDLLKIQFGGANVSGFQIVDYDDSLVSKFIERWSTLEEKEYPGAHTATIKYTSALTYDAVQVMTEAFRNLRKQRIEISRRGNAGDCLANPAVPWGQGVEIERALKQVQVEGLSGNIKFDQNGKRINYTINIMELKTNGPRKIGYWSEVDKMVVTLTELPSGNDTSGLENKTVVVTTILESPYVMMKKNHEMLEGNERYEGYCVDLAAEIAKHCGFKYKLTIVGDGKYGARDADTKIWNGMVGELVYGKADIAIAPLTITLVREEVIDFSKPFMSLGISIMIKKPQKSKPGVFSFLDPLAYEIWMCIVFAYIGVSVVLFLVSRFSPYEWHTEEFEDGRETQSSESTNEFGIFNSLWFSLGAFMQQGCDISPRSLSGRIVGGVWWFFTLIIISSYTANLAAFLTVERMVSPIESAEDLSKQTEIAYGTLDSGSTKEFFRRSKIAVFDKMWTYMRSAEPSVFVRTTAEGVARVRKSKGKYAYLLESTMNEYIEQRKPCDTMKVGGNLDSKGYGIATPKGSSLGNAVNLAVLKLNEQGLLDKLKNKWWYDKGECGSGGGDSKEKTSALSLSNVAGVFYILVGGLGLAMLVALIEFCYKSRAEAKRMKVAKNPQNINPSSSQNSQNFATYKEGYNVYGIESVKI
Assay [7] deals with Glutamate NMDA receptor. The experiment in a line: Displacement of [3H][…] from NMDA receptor in rat synaptosomes. Format: subcellular, Brain.
Assay [8] can be described thus: Agonist activity at GluR2 L483Y mutant expressed in Xenopus laevis oocytes assessed as by effect on glutamate-induced current relative to glutamate. Format: functional, Homo sapiens, Oocyte.
Assay [9] in a line: Agonist activity at GluR2 L483Y mutant expressed in Xenopus laevis oocytes assessed as by effect on glutamate-induced current by two-electrode voltage clamp assay. The note with it: Homo sapiens, Oocyte. Format: functional, cell-based. (In general: Two-electrode voltage clamp holds a large cell at a set potential and records current.)

Structures are written as SMILES. Bounds are passed on as bounds.

Chain of Glutamate receptor 4 (P19493 whole entry): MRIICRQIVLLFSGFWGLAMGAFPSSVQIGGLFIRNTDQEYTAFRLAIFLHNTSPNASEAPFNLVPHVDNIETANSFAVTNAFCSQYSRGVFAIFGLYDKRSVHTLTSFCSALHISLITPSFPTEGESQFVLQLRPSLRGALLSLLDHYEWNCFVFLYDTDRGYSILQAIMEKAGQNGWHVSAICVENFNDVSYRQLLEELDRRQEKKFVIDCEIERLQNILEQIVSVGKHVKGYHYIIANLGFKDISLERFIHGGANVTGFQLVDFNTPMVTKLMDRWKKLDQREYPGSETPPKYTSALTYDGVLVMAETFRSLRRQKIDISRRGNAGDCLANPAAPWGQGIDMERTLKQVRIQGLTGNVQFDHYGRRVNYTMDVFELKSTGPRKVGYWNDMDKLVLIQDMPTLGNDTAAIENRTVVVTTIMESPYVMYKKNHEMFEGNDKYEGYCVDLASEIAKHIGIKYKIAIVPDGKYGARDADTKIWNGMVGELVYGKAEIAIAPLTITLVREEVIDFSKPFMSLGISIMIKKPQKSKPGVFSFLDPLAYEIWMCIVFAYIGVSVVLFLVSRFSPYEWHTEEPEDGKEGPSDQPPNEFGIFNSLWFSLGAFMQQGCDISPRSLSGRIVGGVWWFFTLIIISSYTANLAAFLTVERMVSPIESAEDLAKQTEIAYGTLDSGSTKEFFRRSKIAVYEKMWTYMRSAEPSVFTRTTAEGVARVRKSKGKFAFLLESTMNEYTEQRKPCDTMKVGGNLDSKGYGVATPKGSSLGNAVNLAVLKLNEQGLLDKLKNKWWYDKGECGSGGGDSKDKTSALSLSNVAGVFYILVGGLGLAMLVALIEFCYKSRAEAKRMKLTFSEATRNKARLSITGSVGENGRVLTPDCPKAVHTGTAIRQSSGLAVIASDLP
Chain of Glutamate receptor ionotropic, kainate 2 (P42260 whole entry): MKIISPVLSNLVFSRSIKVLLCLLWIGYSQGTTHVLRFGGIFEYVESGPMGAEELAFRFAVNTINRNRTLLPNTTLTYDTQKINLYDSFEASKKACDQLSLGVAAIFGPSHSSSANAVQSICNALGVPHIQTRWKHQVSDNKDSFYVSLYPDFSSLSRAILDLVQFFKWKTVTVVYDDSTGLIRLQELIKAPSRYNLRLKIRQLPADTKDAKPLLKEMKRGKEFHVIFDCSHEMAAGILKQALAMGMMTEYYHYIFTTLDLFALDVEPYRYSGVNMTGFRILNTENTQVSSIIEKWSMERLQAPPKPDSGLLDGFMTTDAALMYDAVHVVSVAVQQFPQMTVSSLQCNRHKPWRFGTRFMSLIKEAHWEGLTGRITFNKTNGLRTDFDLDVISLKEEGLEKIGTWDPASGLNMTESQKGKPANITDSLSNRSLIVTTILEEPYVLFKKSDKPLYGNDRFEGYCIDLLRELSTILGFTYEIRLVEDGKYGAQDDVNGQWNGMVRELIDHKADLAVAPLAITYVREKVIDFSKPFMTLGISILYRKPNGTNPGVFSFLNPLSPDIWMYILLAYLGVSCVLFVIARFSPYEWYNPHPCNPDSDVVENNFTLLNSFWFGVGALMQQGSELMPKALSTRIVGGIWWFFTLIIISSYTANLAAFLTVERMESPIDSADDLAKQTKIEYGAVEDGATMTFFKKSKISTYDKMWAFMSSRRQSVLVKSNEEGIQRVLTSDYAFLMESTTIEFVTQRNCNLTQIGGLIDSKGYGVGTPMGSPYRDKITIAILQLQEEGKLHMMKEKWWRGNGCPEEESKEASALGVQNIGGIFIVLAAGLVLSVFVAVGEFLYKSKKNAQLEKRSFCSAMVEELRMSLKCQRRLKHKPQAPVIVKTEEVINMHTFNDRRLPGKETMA
Description for Glutamate receptor 1: Displacement of [3H]AMPA from rat recombinant GluR1 expressed in Sf9 cells
Description for Glutamate receptor 2: Displacement of [3H]AMPA from rat recombinant GluR2 expressed in Sf9 cells
Description for Glutamate receptor 3: Displacement of [3H]AMPA from rat recombinant GluR3 expressed in Sf9 cells
Description for Glutamate receptor 4: Displacement of [3H]AMPA from rat recombinant GluR4 expressed in Sf9 cells

For the compound `CC(C)n1nnc(-c2onc(O)c2CC(N)C(=O)O)n1` (stereo not given), the Ki is > 100 µM in [1]; > 100 µM on Glutamate NMDA receptor [5]; 3.7 µM at Glutamate receptor 3; 2.4 µM at Glutamate receptor 4; 31 µM in assay [6]; 0.01 µM on Glutamate receptor 1. Besides, the affinity at Glutamate receptor 2, expressed as Ki, was 2.9 µM. In assay [2], this compound had an EC50 of 71 µM. For the same compound, the IC50 in [3] was 6.2 µM; in assay [4], > 100 µM.
In the case of `Cn1nnc(-c2onc(O)c2C[C@H](N)C(=O)O)n1`, the Ki in [1] was 19 µM; on Glutamate NMDA receptor [7], > 100 µM; on Glutamate receptor 4 it was 0.0027 µM; in assay [6] it was 8.1e-05 µM; at Glutamate receptor 2 it was 0.0039 µM. Further, the IC50 came to 0.009 µM in [3] and 11 µM in assay [4].
As to `CCn1nnc(-c2onc(O)c2CC(N)C(=O)O)n1` (stereo not given), the Ki in assay [1] was > 100 µM; at Glutamate NMDA receptor [5], > 100 µM; at Glutamate receptor 3 it was 0.045 µM; on Glutamate receptor 4, 0.044 µM; in [6], 2.9 µM; at Glutamate receptor 1 it was 0.15 µM. Further, the Ki on Glutamate receptor 2 was found to be 0.08 µM. In [2], the midpoint of the response, the EC50, lay at 3.5 µM. The IC50 in assay [3] is 0.13 µM; in [4] it was > 100 µM.
Take `CCCn1nnc(-c2onc(O)c2CC(N)C(=O)O)n1` (stereo not given): the Ki in assay [1] was > 100 µM; at Glutamate NMDA receptor [5], > 100 µM; at Glutamate receptor 3, 1.2 µM; on Glutamate receptor 4 it was 0.73 µM; in assay [6] it was 5.5 µM; at Glutamate receptor 1, 0.0052 µM. This compound had a Ki at Glutamate receptor 2 of 1.6 µM. The same compound came in with an EC50 in assay [2] of 32 µM. Also, the concentration for half-maximal inhibition (IC50) was 2.5 µM in assay [3] and > 100 µM in assay [4].
`NC(Cc1c(O)noc1-c1nnnn1Cc1ccccc1)C(=O)O` (racemic): the IC50 in [3] and in [4] was > 100 µM each time. For the same compound, the Ki on Glutamate NMDA receptor [5] was > 100 µM.
Turning to `NC(Cc1c(O)noc1-c1nnn(Cc2ccccc2)n1)C(=O)O` (racemic), the Ki worked out at 39 µM in assay [1], 87 µM at Glutamate NMDA receptor [5] and 58 µM in assay [6]. For the same compound, the EC50 is 32 µM in assay [2] and 95 µM in [9]. The IC50 in assay [3] is 2.7 µM; in assay [4], > 100 µM. Also, the Activity in assay [8] is listed as 84%.
In the case of `Cc1onc(O)c1CC(N)C(=O)O` (racemic) [(R,S)-AMPA], the Ki in assay [1] is > 1000 µM. Moreover, the IC50 in assay [4] was > 100 µM.
